This is an account of results in EP3057951B1, “METHYLENE LINKED QUINOLINYL MODULATORS OF ROR-GAMMA-T” (Janssen Pharmaceutica NV, priority 2013, dated 2015).

Several values for one entry are separate records, joined by “and”; a condition that tells them apart may be missing. Equal entries are not always repeated. Where two headings read alike, the source gives them in different places.

Assay [1] addresses T1, wild type human RORγt ligand binding domain (RORyt LBD) (Homo sapiens, UniProt P51449).
T1 construct: His-tag (N); TurboTEV protease cleavage site (ENLYFQG) (N); made in house; host or cells: E. coli (pHIS1, modified pET vector)
T1 sequence (P51449 258-518): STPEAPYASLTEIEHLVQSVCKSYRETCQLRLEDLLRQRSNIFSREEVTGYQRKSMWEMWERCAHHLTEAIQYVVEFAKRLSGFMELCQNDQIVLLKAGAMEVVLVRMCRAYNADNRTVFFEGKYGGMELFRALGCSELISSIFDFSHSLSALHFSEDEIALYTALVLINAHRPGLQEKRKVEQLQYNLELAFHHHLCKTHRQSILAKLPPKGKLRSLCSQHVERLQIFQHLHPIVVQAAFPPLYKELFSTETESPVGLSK
Description: RORγt ThermoFluor assay (thermal shift, binding affinity KD). (In general: Differential scanning fluorimetry follows unfolding on heating by fluorescence.)

Assay [2] addresses T2, wild type human RORγt LBD (Homo sapiens, UniProt P51449).
T2 construct: expressed in transfected cells; host or cells: HEK293T
T2 sequence (P51449 258-518): T1 sequence (P51449 258-518)
Description: RORγt (LBD) Reporter Assay (GAL4-luciferase, HEK293T cells). The note with it: for RORγt (LBD) Reporter Assay, % inhibition @ 6 µM: 6 µM compound concentration; for inhibition at 6 µM: HEK-293T, read-out: RORγt (LBD) Reporter Assay, % inhibition @ 6 µM, 6 µM compound concentration. The assay is classed as cell-based. (In general: A reporter such as luciferase makes a cellular process visible.)

The mark [3] stands for this setting: HEK293T cells, value after the comma with ∼, > or < could not be included in the average.

For the compound `Cn1cncc1C(O)(c1ccc2nc(C(F)(F)F)c(Cc3ccccc3)c(C#N)c2c1)c1ccccn1` (single isomer, unassigned) [Example 99c, 3-Benzyl-6-(hydroxy(1-methyl-1H-imidazol-5-yl)(pyridin-2-yl)methyl)-2-(trifluoromethyl)quinoline-4-carbonitrile], the Kd – broadly, the concentration at which binding is half-saturated – in assay [1] turned out to be 12 nM. The “RORγt (LBD) Reporter Assay, % inhibition @ 6 µM” value (shortened to “RORγt … % inhibition @ 6 µM”) in assay [2] is given as 97%. Half-maximal inhibition in assay [2] (setting [3]) (IC50) was put at 20 nM.
The like results for `COc1c(Cc2ccccc2)c(C(F)(F)F)nc2ccc(C(O)(c3ccc(C(F)(F)F)nc3)c3cncn3C)cc12` (single isomer, unassigned) [Example 106b, (3-Benzyl-4-methoxy-2-(trifluoromethyl)quinolin-6-yl)(1-methyl-1H-imidazol-5-yl)(6-(trifluoromethyl)pyridin-3-yl)methanol] were, in that order, 110 nM, 94% and 670 nM.
On the same counts, the results for `COc1c(Cc2ccccc2)c(C(F)(F)F)nc2ccc(C(O)(c3ccc(C(F)(F)F)nc3)c3cncn3C)cc12` (single isomer, unassigned) [Example 106c, (3-Benzyl-4-methoxy-2-(trifluoromethyl)quinolin-6-yl)(1-methyl-1H-imidazol-5-yl)(6-(trifluoromethyl)pyridin-3-yl)methanol] are 18 nM, 65% and about 5000 nM.
For `Cn1cncc1C(O)(c1ccc(C(F)(F)F)nc1)c1ccc2nc(C(F)(F)F)c(Cc3ccccc3)c(C#N)c2c1` (single isomer, unassigned) [Example 108b, 3-Benzyl-6-(hydroxy(1-methyl-1H-imidazol-5-yl)(6-(trifluoromethyl)pyridin-3-yl)methyl)-2-(trifluoromethyl)quinoline-4-carbonitrile], the Kd in assay [1] amounted to 1.2 nM. In assay [2], the “RORγt … % inhibition @ 6 µM” value stood at 55%. 1100 nM corresponded to half-maximal inhibition in assay [2] (setting [3]) (IC50).
For the compound `Cn1cncc1C(O)(c1ccc(C(F)(F)F)nc1)c1ccc2nc(C(F)(F)F)c(Cc3ccccc3)c(C#N)c2c1` (single isomer, unassigned) [Example 108c, 3-Benzyl-6-(hydroxy(1-methyl-1H-imidazol-5-yl)(6-(trifluoromethyl)pyridin-3-yl)methyl)-2-(trifluoromethyl)quinoline-4-carbonitrile], the Kd in assay [1] was determined as 46 nM. In assay [2], the “RORγt … % inhibition @ 6 µM” value is 83%. In assay [2] (setting [3]), the IC50 (usually the concentration needed to halve the response being measured) was 960 nM and ~1000 nM.
In the case of `Cn1cc(-c2nc3ccc(C(O)(c4ccc(C(F)(F)F)nc4)c4cncn4C)cc3c(Cl)c2Cc2ccccc2)cn1` (single isomer, unassigned) [Example 111b, (3-Benzyl-4-chloro-2-(1-methyl-1H-pyrazol-4-yl)quinolin-6-yl)(1-methyl-1H-imidazol-5-yl)(6-(trifluoromethyl)pyridin-3-yl)methanol], the Kd in assay [1] worked out at 1400 nM. The compound further registered an IC50 in assay [2] (setting [3]) of about 900 nM. Further, in assay [2], the inhibition at 6 µM stood at 99%.
With `Cn1cc(-c2nc3ccc(C(O)(c4ccc(C(F)(F)F)nc4)c4cncn4C)cc3c(Cl)c2Cc2ccccc2)cn1` (single isomer, unassigned) [Example 111c, (3-Benzyl-4-chloro-2-(1-methyl-1H-pyrazol-4-yl)quinolin-6-yl)(1-methyl-1H-imidazol-5-yl)(6-(trifluoromethyl)pyridin-3-yl)methanol], the Kd in assay [1] turned out to be 22000 nM. Moreover, the “RORγt … % inhibition @ 6 µM” value in assay [2] came out at 92%. Besides, the IC50 in assay [2] (setting [3]) is about 5000 nM.
As to `Cn1cc(-c2nc3ccc(C(O)(c4ccc(C(F)(F)F)nc4)c4cncn4C)cc3c(C#N)c2Cc2ccccc2)cn1` (single isomer, unassigned) [Example 112b, 3-Benzyl-6-(hydroxy(1-methyl-1H-imidazol-5-yl)(6-(trifluoromethyl)pyridin-3-yl)methyl)-2-(1-methyl-1H-pyrazol-4-yl)quinoline-4-carbonitrile], the equilibrium dissociation constant (Kd) in assay [1] was determined as 2200 nM. Also, the “RORγt … % inhibition @ 6 µM” value in assay [2] was 92%. The compound further showed an IC50 in assay [2] (setting [3]) of 450 nM.
In the case of `Cn1cc(-c2nc3ccc(C(O)(c4ccc(C(F)(F)F)nc4)c4cncn4C)cc3c(C#N)c2Cc2ccccc2)cn1` (single isomer, unassigned) [Example 112c, 3-Benzyl-6-(hydroxy(1-methyl-1H-imidazol-5-yl)(6-(trifluoromethyl)pyridin-3-yl)methyl)-2-(1-methyl-1H-pyrazol-4-yl)quinoline-4-carbonitrile], in assay [1], the Kd stood at 13000 nM. Besides, the “RORγt … % inhibition @ 6 µM” value in assay [2] is listed as 71%. Further, the IC50 in assay [2] (setting [3]) was about 5000 nM.
For `Cn1cncc1C(O)(c1ccc(C(F)(F)F)nc1)c1ccc2nc(-c3nccn3C)c(Cc3ccccc3)c(Cl)c2c1` (single isomer, unassigned) [Example 113b, (3-Benzyl-4-chloro-2-(1-methyl-1H-imidazol-2-yl)quinolin-6-yl)(1-methyl-1H-imidazol-5-yl)(6-(trifluoromethyl)pyridin-3-yl)methanol], the Kd in assay [1] worked out at 23000 nM. Also, in assay [2] (HEK293T cells), the concentration for half-maximal inhibition (IC50) is about 6000 nM and the inhibition at 6 µM came to 58%.
For the compound `COc1nc2ccc(C(O)(c3ccc(C)nc3C)c3cnnn3C)cc2c(Cl)c1Cc1ccc(S(C)(=O)=O)cc1` (single isomer, unassigned) [Example 117b, (4-Chloro-2-methoxy-3-(4-(methylsulfonyl)benzyl)quinolin-6-yl)(2,6-dimethylpyridin-3-yl)(1-methyl-1H-1,2,3-triazol-5-yl)methanol], the Kd in assay [1] was 1300 nM. Moreover, in assay [2] (HEK293T cells), the concentration for half-maximal inhibition (IC50) is about 4000 nM and the inhibition at 6 µM turned out to be 88%.
For `COc1nc2ccc(C(O)(c3ccc(C)nc3C)c3cnnn3C)cc2c(Cl)c1Cc1ccc(S(C)(=O)=O)cc1` (single isomer, unassigned) [Example 117c, (4-Chloro-2-methoxy-3-(4-(methylsulfonyl)benzyl)quinolin-6-yl)(2,6-dimethylpyridin-3-yl)(1-methyl-1H-1,2,3-triazol-5-yl)methanol], in assay [1], the Kd worked out at 5.5 nM. For the same compound, in assay [2] (HEK293T cells), the “RORγt … % inhibition @ 6 µM” value turned out to be 101% and 52 nM corresponded to half-maximal inhibition (IC50).
`COc1nc2ccc(C(O)(c3ncccn3)c3cncn3C)cc2c(Cl)c1Cc1ccc(-n2cccn2)cc1` (single isomer, unassigned) [Example 131b, {4-Chloro-2-methoxy-3-[4-(1H-pyrazol-1-yl)benzyl]quinolin-6-yl}(1-methyl-1H-imidazol-5-yl)pyrimidin-2-ylmethanol]: in assay [1], the Kd came to 9000 nM. Further, in assay [2] (HEK293T cells), the “RORγt … % inhibition @ 6 µM” value was 59% and the IC50 was about 6000 nM.
The like results for `COc1nc2ccc(C(O)(c3ncccn3)c3cncn3C)cc2c(Cl)c1Cc1ccc(-n2cccn2)cc1` (single isomer, unassigned) [Example 131c, {4-Chloro-2-methoxy-3-[4-(1H-pyrazol-1-yl)benzyl]quinolin-6-yl}(1-methyl-1H-imidazol-5-yl)pyrimidin-2-ylmethanol] were, in that order, 220 nM, 100% and 1600 nM.
Consider `COC1CN(c2nc3ccc(C(O)(c4ccc(C(F)(F)F)nc4)c4cncn4C)cc3c(Cl)c2Cc2ccc(-n3cccn3)cc2)C1` (single isomer, unassigned) [Example 133b, {4-Chloro-2-(3-methoxyazetidin-1-yl)-3-[4-(1H-pyrazol-1-yl)benzyl]quinolin-6-yl}(1-methyl-1H-imidazol-5-yl)[6-(trifluoromethyl)pyridin-3-yl]methanol], for which the Kd in assay [1] amounted to 330 nM. In assay [2] (HEK293T cells), the IC50 was 840 nM and the inhibition at 6 µM worked out at 99%.
Turning to `COC1CN(c2nc3ccc(C(O)(c4ccc(C(F)(F)F)nc4)c4cncn4C)cc3c(Cl)c2Cc2ccc(-n3cccn3)cc2)C1` (single isomer, unassigned) [Example 133c, {4-Chloro-2-(3-methoxyazetidin-1-yl)-3-[4-(1H-pyrazol-1-yl)benzyl]quinolin-6-yl}(1-methyl-1H-imidazol-5-yl)[6-(trifluoromethyl)pyridin-3-yl]methanol], in assay [1], the Kd came to 12000 nM. For the same compound, in assay [2] (HEK293T cells), the “RORγt … % inhibition @ 6 µM” value is 82% and half-maximal inhibition (IC50) was put at 1200 nM.
Turning to `Cn1cncc1C(O)(c1ccc(C(F)(F)F)nc1)c1ccc2nc(N3CC(O)C3)c(Cc3ccc(-n4cccn4)cc3)c(Cl)c2c1` (single isomer, unassigned) [Example 134b, 1-(4-Chloro-6-{hydroxy(1-methyl-1H-imidazol-5-yl)[6-(trifluoromethyl)pyridin-3-yl]methyl}-3-[4-(1H-pyrazol-1-yl)benzyl]quinolin-2-yl)azetidin-3-ol], the Kd in assay [1] stood at 220 nM. Also, in assay [2] (HEK293T cells), half-maximal inhibition (IC50) was put at 420 nM and the inhibition at 6 µM amounted to 101%.
`Cn1cncc1C(O)(c1ccc(C(F)(F)F)nc1)c1ccc2nc(N3CC(O)C3)c(Cc3ccc(-n4cccn4)cc3)c(Cl)c2c1` (single isomer, unassigned) [Example 134c, 1-(4-Chloro-6-{hydroxy(1-methyl-1H-imidazol-5-yl)[6-(trifluoromethyl)pyridin-3-yl]methyl}-3-[4-(1H-pyrazol-1-yl)benzyl]quinolin-2-yl)azetidin-3-ol]: the Kd in assay [1] was 1200 nM. In addition, in assay [2] (HEK293T cells), the “RORγt … % inhibition @ 6 µM” value turned out to be 96% and the IC50 turned out to be 1100 nM.
